{"source": "patent US8148404B2", "about": "“Modulators of CB1 receptors” (7TM Pharma A/S, priority 2006, dated 2012)"}
{"target": "T1, human CB1 receptor (Homo sapiens, UniProt P21554)", "T1 construct": "expressed in transfected cells; membranes used", "T1 sequence (P21554 whole entry)": "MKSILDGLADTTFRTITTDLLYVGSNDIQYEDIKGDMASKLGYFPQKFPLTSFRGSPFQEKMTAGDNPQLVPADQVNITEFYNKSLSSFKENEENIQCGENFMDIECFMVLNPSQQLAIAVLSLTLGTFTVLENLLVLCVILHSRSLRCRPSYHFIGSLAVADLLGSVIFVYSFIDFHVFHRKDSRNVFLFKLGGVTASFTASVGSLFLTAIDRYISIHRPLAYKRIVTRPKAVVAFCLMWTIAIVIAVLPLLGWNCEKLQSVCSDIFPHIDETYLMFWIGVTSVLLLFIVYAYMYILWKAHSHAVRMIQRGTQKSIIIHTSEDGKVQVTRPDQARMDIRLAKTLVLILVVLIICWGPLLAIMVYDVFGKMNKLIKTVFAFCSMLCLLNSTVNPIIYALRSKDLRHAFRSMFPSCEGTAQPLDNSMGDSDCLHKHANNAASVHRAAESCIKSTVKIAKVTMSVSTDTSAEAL", "assay": "Cannabinoid Receptor-1 functional assay: inhibition of CP55940-induced [35S]GTPγS binding to membranes of CHO-K1 cells expressing human CB1", "assay_type": "biochemical", "settings": "3 nM CP55940, [35S]GTPγS SPA, hCB1 membranes; read-out: IC50 value for antagonizing a CB1 receptor agonist", "method_in_brief": "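Membranes (5 μg/well) from CHO-K1 cells stably expressing human CB1 incubated 1 hr at room temperature with 1 nM [35S]GTPγS, 3 nM CP55940 and test compound in HEPES pH 7.5 buffer with 1 μM GDP, saponin. Bound label read by SPA after 30 min with beads; IC50 by non-linear regression.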", "units": {"IC50": "µM"}}
{"smiles": "O=C(c1nn(-c2ccccc2F)c(-c2ccc(Cl)cc2)c1Cc1nn[nH]n1)N1CCC(Oc2ccc(Cl)cc2)CC1", "note": "[[4.1], [1-(2-Fluoro-phenyl)-5-(4-chloro-phenyl)-4-(2H-tetrazol-5-ylmethyl)-1H-pyrazol-3-yl]-[4-(4-chlorophenoxy)-piperidin-1-yl]-methanone]", "IC50": "< 0.3"}
{"smiles": "O=C(c1nn(-c2ccccc2F)c(-c2ccc(Cl)cc2)c1Cc1nn[nH]n1)N1CCC(c2ccccc2F)CC1", "note": "[[4.2], [1-(2-Fluoro-phenyl)-5-(4-chloro-phenyl)-4-(2H-tetrazol-5-ylmethyl)-1H-pyrazol-3-yl]-[4-(2-fluoro-phenyl)-piperidin-1-yl]-methanone]", "IC50": "< 0.3"}
{"smiles": "O=C(O)Cc1c(C(=O)N2CCC(c3ccccc3F)CC2)nn(-c2ccccc2F)c1-c1ccc(Cl)cc1", "note": "[[4.4], {1-(2-Fluoro-phenyl)-5-(4-chloro-phenyl)-3-[4-(2-fluoro-phenyl)-piperidine-1-carbonyl]-1H-pyrazol-4-yl}-acetic acid]", "IC50": "< 0.3"}
